According to ChEMBL document CHEMBL1201862, “PubChem BioAssay data set” (2004):
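Growth conditions: 96-well plates. Treatment: test compound, 48 hours, 5 concentrations. Analysis: linear interpolation between bracketing concentrations; unreached endpoints set to highest concentration. At the GI50, growth is halved.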 The source made the active and inactive calls. Rule as the data show it: active = GI50 up to about 1.1 µM and inactive = higher. Square brackets hold non-standard residues; d marks the D form. Peptide text beside a SMILES is read from it. * marks the point of attachment. Tyr(3-Br) = N[C@@H](Cc1ccc(O)c(Br)c1)C(=O)O; Boc = CC(C)(C)OC(=O)*

Columns and labels:
Experiment in all cases: NCI-60 cell line screen, 48 h
ACHN = test system: ACHN
COLO 205 = test system: COLO 205
DU-145 = test system: DU-145
EKVX = test system: EKVX
HT-29 = test system: HT-29
Hs-578T = test system: Hs-578T
K562 = test system: K562
Malme-3M = test system: Malme-3M
NCI-H23 = test system: NCI-H23
NCI-H460 = test system: NCI-H460
RPMI-8226 = test system: RPMI-8226
SF-268 = test system: SF-268
SK-MEL-2 = test system: SK-MEL-2
SN12C = test system: SN12C
SNB-19 = test system: SNB-19
SR = test system: SR
TK-10 = test system: TK-10
UACC-257 = test system: UACC-257
UACC-62 = test system: UACC-62
RXF 393 = test system: RXF 393

| SMILES | GI50 (ACHN) | GI50 (COLO 205) | GI50 (DU-145) | GI50 (EKVX) | GI50 (HT-29) | GI50 (Hs-578T) | GI50 (K562) | GI50 (Malme-3M) | GI50 (NCI-H23) | GI50 (NCI-H460) | GI50 (RPMI-8226) | GI50 (SF-268) | GI50 (SK-MEL-2) | GI50 (SN12C) | GI50 (SNB-19) | GI50 (SR) | GI50 (TK-10) | GI50 (UACC-257) | GI50 (UACC-62) | GI50 (RXF 393) |
| --- | --- | --- | --- | --- | --- | --- | --- | --- | --- | --- | --- | --- | --- | --- | --- | --- | --- | --- | --- | --- |
| CCOC(=O)C(NNS(=O)(=O)c1ccc(C)cc1)S(=O)(=O)C(F)(F)C(F)(F)C(F)(F)C(F)(F)F (stereo unspecified) | > 100 µM (inactive) | > 100 µM (inactive) | > 100 µM (inactive) | > 100 µM (inactive) | > 100 µM (inactive) | 97.3 µM (inactive) | > 100 µM (inactive) | > 100 µM (inactive) | > 100 µM (inactive) | > 100 µM (inactive) | > 100 µM (inactive) | > 100 µM (inactive) | > 100 µM (inactive) | > 100 µM (inactive) | > 100 µM (inactive) | > 100 µM (inactive) | > 100 µM (inactive) | > 100 µM (inactive) | > 100 µM (inactive) | – |
| O=C1CCC[C@H]2O[C@@H](COCc3ccccc3)C[C@@H]12 | > 100 µM (inactive) | > 100 µM (inactive) | > 100 µM (inactive) | – | > 100 µM (inactive) | > 100 µM (inactive) | > 100 µM (inactive) | – | > 100 µM (inactive) | > 100 µM (inactive) | > 100 µM (inactive) | > 100 µM (inactive) | > 100 µM (inactive) | > 100 µM (inactive) | > 100 µM (inactive) | > 100 µM (inactive) | > 100 µM (inactive) | > 100 µM (inactive) | > 100 µM (inactive) | – |
| COc1cc2c(cc1OCCCNC(=O)c1cc3ccccc3[nH]1)N=C[C@@H]1CCCN1C2=O | 0.347 µM (active) | 0.391 µM (active) | 0.223 µM (active) | 1.02 µM (active) | 0.296 µM (active) | 0.23 µM (active) | 0.243 µM (active) | – | 0.504 µM (active) | 0.675 µM (active) | 0.474 µM (active) | 0.082 µM (active) | 0.179 µM (active) | 0.409 µM (active) | 0.445 µM (active) | 0.19 µM (active) | 0.359 µM (active) | 0.448 µM (active) | 0.234 µM (active) | 0.0966 µM (active) |
| COc1ccc2nc3n(c2c1)C(c1c(F)cccc1F)SC3 (stereo unspecified) | 34 µM (inactive) | > 100 µM (inactive) | 42.3 µM (inactive) | 18.9 µM (inactive) | 25.7 µM (inactive) | 22.3 µM (inactive) | 50.4 µM (inactive) | – | 25.9 µM (inactive) | 35 µM (inactive) | 29.9 µM (inactive) | 29 µM (inactive) | 11.1 µM (inactive) | > 100 µM (inactive) | 20.8 µM (inactive) | 37.9 µM (inactive) | 77.4 µM (inactive) | > 100 µM (inactive) | 56.9 µM (inactive) | > 100 µM (inactive) |
| COC(=O)c1cc2c(o1)Sc1ccccc1NC2=O | 27.1 µM (inactive) | > 100 µM (inactive) | > 100 µM (inactive) | – | > 100 µM (inactive) | 27.7 µM (inactive) | > 100 µM (inactive) | – | > 100 µM (inactive) | > 100 µM (inactive) | > 100 µM (inactive) | 31.8 µM (inactive) | > 100 µM (inactive) | > 100 µM (inactive) | 35.9 µM (inactive) | > 100 µM (inactive) | > 100 µM (inactive) | > 100 µM (inactive) | > 100 µM (inactive) | – |
| COC(=O)[C@H](Cc1ccc(O)c(Br)c1)NC(=O)[C@H](Cc1ccc(O)cc1)NC(=O)OC(C)(C)C (Boc-Tyr-[Tyr(3-Br)]-OMe) | 37.3 µM (inactive) | 39.9 µM (inactive) | 61.9 µM (inactive) | > 100 µM (inactive) | 37.7 µM (inactive) | > 100 µM (inactive) | > 100 µM (inactive) | 24.5 µM (inactive) | 27.4 µM (inactive) | 19.2 µM (inactive) | 28.4 µM (inactive) | 48.3 µM (inactive) | 37 µM (inactive) | 78.5 µM (inactive) | > 100 µM (inactive) | 44.6 µM (inactive) | > 100 µM (inactive) | 43.8 µM (inactive) | – | – |
| CO[C@]12CC(=O)C3(C(C[C@H]4CC5CCC6=CC(=O)CC[C@]6(OC(C)=O)C5C[C@@]43C)C1)C1C[C@H]3[C@@H]4CCC5=CC(=O)CC[C@]5(OC(C)=O)[C@H]4CC[C@]3(C)C12 (stereo partly specified) | > 100 µM (inactive) | 19.7 µM (inactive) | > 100 µM (inactive) | > 100 µM (inactive) | > 100 µM (inactive) | > 100 µM (inactive) | > 100 µM (inactive) | > 100 µM (inactive) | > 100 µM (inactive) | > 100 µM (inactive) | > 100 µM (inactive) | > 100 µM (inactive) | > 100 µM (inactive) | > 100 µM (inactive) | > 100 µM (inactive) | > 100 µM (inactive) | > 100 µM (inactive) | > 100 µM (inactive) | > 100 µM (inactive) | – |
| CCOC(=O)c1c2c(n(Cc3ccccc3)c1C)C(=O)C(=O)c1ccccc1-2 | 0.275 µM (active) | 0.705 µM (active) | 0.465 µM (active) | 0.726 µM (active) | 0.989 µM (active) | 0.925 µM (active) | 0.122 µM (active) | 0.0968 µM (active) | 0.231 µM (active) | 0.418 µM (active) | 0.119 µM (active) | 0.415 µM (active) | 1.26 µM (inactive) | 0.171 µM (active) | 0.315 µM (active) | – | 0.64 µM (active) | 0.0989 µM (active) | 0.284 µM (active) | 0.703 µM (active) |
| O=C(O)CN(CC(=O)O)C1CCCCC1N1CC(=O)OC(=O)C1 (stereo unspecified) | > 100 µM (inactive) | > 100 µM (inactive) | > 100 µM (inactive) | > 100 µM (inactive) | 38.4 µM (inactive) | 47.1 µM (inactive) | 71.8 µM (inactive) | 10.3 µM (inactive) | > 100 µM (inactive) | > 100 µM (inactive) | > 100 µM (inactive) | 61.7 µM (inactive) | > 100 µM (inactive) | > 100 µM (inactive) | > 100 µM (inactive) | 71.4 µM (inactive) | > 100 µM (inactive) | > 100 µM (inactive) | > 100 µM (inactive) | – |
| CC(C)(C)c1ccc(O)c(C(c2ccc([N+](=O)[O-])cc2)c2cc(C(C)(C)C)ccc2O)c1 | 1.85 µM (inactive) | 2.5 µM (inactive) | 2.39 µM (inactive) | 1.97 µM (inactive) | 1.87 µM (inactive) | 3.61 µM (inactive) | 2.73 µM (inactive) | – | 1.99 µM (inactive) | – | 2.37 µM (inactive) | 1.63 µM (inactive) | 1.81 µM (inactive) | 2.38 µM (inactive) | 2.41 µM (inactive) | 2.4 µM (inactive) | 2.53 µM (inactive) | 1.79 µM (inactive) | 1.66 µM (inactive) | 2.07 µM (inactive) |
| CN1C(=O)C(O)CC1c1ccc(C(F)(F)F)cc1 (stereo unspecified) | > 100 µM (inactive) | > 100 µM (inactive) | > 100 µM (inactive) | > 100 µM (inactive) | > 100 µM (inactive) | > 100 µM (inactive) | > 100 µM (inactive) | > 100 µM (inactive) | > 100 µM (inactive) | > 100 µM (inactive) | > 100 µM (inactive) | > 100 µM (inactive) | > 100 µM (inactive) | > 100 µM (inactive) | > 100 µM (inactive) | – | > 100 µM (inactive) | 44.1 µM (inactive) | > 100 µM (inactive) | > 100 µM (inactive) |
| C=C1CC=CC(C)(C)C1C/C=C(\C)C(O)CBr (stereo unspecified) | 53.7 µM (inactive) | 39 µM (inactive) | 45.4 µM (inactive) | > 100 µM (inactive) | 51.8 µM (inactive) | > 100 µM (inactive) | 67.8 µM (inactive) | – | > 100 µM (inactive) | 95.7 µM (inactive) | 25.4 µM (inactive) | > 100 µM (inactive) | > 100 µM (inactive) | > 100 µM (inactive) | > 100 µM (inactive) | 28 µM (inactive) | 89.9 µM (inactive) | 54.7 µM (inactive) | 53.7 µM (inactive) | 26.7 µM (inactive) |
| Cc1cnc2c(c1)C(=O)N(c1ccc([N+](=O)[O-])cc1)S2(=O)=O | > 100 µM (inactive) | > 100 µM (inactive) | > 100 µM (inactive) | > 100 µM (inactive) | > 100 µM (inactive) | 38.1 µM (inactive) | – | 22.4 µM (inactive) | > 100 µM (inactive) | > 100 µM (inactive) | 37.7 µM (inactive) | 77.8 µM (inactive) | 5.47 µM (inactive) | > 100 µM (inactive) | 56.2 µM (inactive) | 25.7 µM (inactive) | > 100 µM (inactive) | > 100 µM (inactive) | 75.5 µM (inactive) | – |
| COc1ccc(C(=O)N2CCN(c3ccc4c(c3)OCC(=O)N4)CC2)cc1 | > 100 µM (inactive) | > 100 µM (inactive) | > 100 µM (inactive) | 94 µM (inactive) | > 100 µM (inactive) | > 100 µM (inactive) | – | > 100 µM (inactive) | > 100 µM (inactive) | > 100 µM (inactive) | > 100 µM (inactive) | > 100 µM (inactive) | > 100 µM (inactive) | > 100 µM (inactive) | > 100 µM (inactive) | 67.3 µM (inactive) | > 100 µM (inactive) | > 100 µM (inactive) | > 100 µM (inactive) | – |
| CCOC(=O)c1c[nH]c(C(=O)C=[N+]=[N-])c1C1CCN(CC)C1=S (stereo unspecified) | > 100 µM (inactive) | 63.5 µM (inactive) | > 100 µM (inactive) | > 100 µM (inactive) | > 100 µM (inactive) | > 100 µM (inactive) | > 100 µM (inactive) | > 100 µM (inactive) | 99.8 µM (inactive) | 93.3 µM (inactive) | > 100 µM (inactive) | > 100 µM (inactive) | > 100 µM (inactive) | – | > 100 µM (inactive) | – | > 100 µM (inactive) | > 100 µM (inactive) | > 100 µM (inactive) | > 100 µM (inactive) |
